Laboratory results as given in ChEMBL document CHEMBL4406824, “Phenolic N-monosubstituted carbamates: Antitubercular and toxicity evaluation of multi-targeting compounds” (Eur J Med Chem, 2019).
Values after ≈ are worked out from the molar mass of the structure shown.

How the values were obtained:
in vitro = details: human, HepG2 cells
Description: Selectivity index, ratio of IC50 for human HepG2 cells to MIC for antimycobacterial activity against Mycobacterium tuberculosis H37Rv

HepG2 [1] = test: Cytostatic activity against human HepG2 cells preincubated for overnight in serum free medium followed by compound wash out and further incubated for 72 hrs in presence of serum by MTT assay; format: ADME, cell-based
[2] = tested on: Mycobacterium tuberculosis; test: Antimycobacterial activity against Mycobacterium tuberculosis H37Ra ITM-M006710 after 48 hr by resazurin dye based microdilution method; format: functional; details: H37Ra ITM-M006710, 48 h
Mycobacterium kansasii [3] = test: Antimycobacterial activity against Mycobacterium kansasii 6509/96 after 21 days; format: functional; details: 6509/96, 504 h
Mycobacterium kansasii [4] = test: Antimycobacterial activity against Mycobacterium kansasii 6509/96 after 14 days; format: functional; details: 6509/96, 336 h
Mycobacterium kansasii [5] = test: Antimycobacterial activity against Mycobacterium kansasii 235/80 after 7 days; format: functional; details: 235/80, 168 h
Mycolicibacterium aurum = test: Antimycobacterial activity against Mycobacterium aurum DSM 43999 after 72 hr by resazurin dye based microdilution method; format: functional; details: DSM 43999, 72 h
Mycobacterium avium [6] = test: Antimycobacterial activity against Mycobacterium avium 330/88 after 14 days; format: functional; details: 330/88, 336 h
Mycobacterium kansasii [7] = test: Antimycobacterial activity against Mycobacterium kansasii 235/80 after 14 days; format: functional; details: 235/80, 336 h
Mycobacterium kansasii [8] = test: Antimycobacterial activity against Mycobacterium kansasii 6509/96 after 7 days; format: functional; details: 6509/96, 168 h
[9] = tested on: Mycolicibacterium smegmatis; test: Antimycobacterial activity against Mycobacterium smegmatis DSM 43465 after 120 hr by resazurin dye based microdilution method; format: functional; details: DSM 43465, 120 h
[10] = tested on: Mycobacterium tuberculosis H37Rv; test: Inhibition of recombinant Mycobacterium tuberculosis H37Rv ICL1 expressed in Escherichia coli BL21 (DE3) cells at 10 uM using (+)-potassium Ds-threo-isocitrate as substrate by glyoxylate phenyl hydrazone formation assay relative to control
Mycobacterium kansasii [11] = test: Antimycobacterial activity against Mycobacterium kansasii 235/80 after 21 days; format: functional; details: 235/80, 504 h
HepG2 [12] = test: Cytotoxicity against human HepG2 cells assessed as reduction in cell viability after overnight incubation by MTT assay; format: cell-based
[13] = tested on: Mycobacterium tuberculosis; format: functional; details: H37Rv 331/88, 504 h
[14] = tested on: Mycobacterium tuberculosis; format: functional; details: H37Rv 331/88, 336 h
Mycobacterium avium [15] = test: Antimycobacterial activity against Mycobacterium avium 330/88 after 21 days; format: functional; details: 330/88, 504 h
[16] = tested on: Mycobacterium tuberculosis; format: functional, H37Rv 331/88; parameters: reference not given here
Mycobacterium kansasii [17] = test: Potency index, ratio of p-aminosalicylic acid MIC to compound MIC for antimycobacterial activity against Mycobacterium kansasii 6509/96; format: functional
Mycobacterium kansasii [18] = test: Potency index, ratio of p-aminosalicylic acid MIC to compound MIC for antimycobacterial activity against Mycobacterium kansasii 235/80; format: functional

Row | SMILES | selectivity ratio (in vitro) | IC50 (HepG2 [1]) [µM] | MIC [2] [µg/mL] | MIC (Mycobacterium kansasii [3]) [µM] | MIC (Mycobacterium kansasii [4]) [µM] | MIC (Mycobacterium kansasii [5]) [µM] | MIC (Mycolicibacterium aurum) [µg/mL] | MIC (Mycobacterium avium [6]) [µM] | MIC (Mycobacterium kansasii [7]) [µM] | MIC (Mycobacterium kansasii [8]) [µM] | MIC [9] [µg/mL] | inhibition [10] [%] | MIC (Mycobacterium kansasii [11]) [µM] | IC50 (HepG2 [12]) [µM] | MIC [13] [µM] | MIC [14] [µM] | MIC (Mycobacterium avium [15]) [µM] | Ratio [16] | Ratio (Mycobacterium kansasii [17]) | Ratio (Mycobacterium kansasii [18])
1 | O=C(NCCc1ccccc1)Oc1ccccc1C(=O)Nc1ccccc1 | > 1 | 55.6 | 15.6 (≈ 43.3 µM) | 250 (≈ 90.1 µg/mL) | 250 (≈ 90.1 µg/mL) | 125 (≈ 45.1 µg/mL) | 31.2 (≈ 86.7 µM) | 125 (≈ 45.1 µg/mL) | 250 (≈ 90.1 µg/mL) | 125 (≈ 45.1 µg/mL) | 31.2 (≈ 86.7 µM) | 6 | 250 (≈ 90.1 µg/mL) | > 125 | 125 (≈ 45.1 µg/mL) | 125 (≈ 45.1 µg/mL) | 125 (≈ 45.1 µg/mL) | – | – | –
2 | O=C(NC1CCCCC1)Oc1ccccc1C(=O)Nc1ccccc1 | 0.4 | 51.5 | 15.6 (≈ 46.2 µM) | 250 (≈ 84.6 µg/mL) | 250 (≈ 84.6 µg/mL) | 125 (≈ 42.3 µg/mL) | 15.6 (≈ 46.2 µM) | 125 (≈ 42.3 µg/mL) | 250 (≈ 84.6 µg/mL) | 125 (≈ 42.3 µg/mL) | 15.6 (≈ 46.2 µM) | 8 | 250 (≈ 84.6 µg/mL) | 49 | 125 (≈ 42.3 µg/mL) | 125 (≈ 42.3 µg/mL) | 125 (≈ 42.3 µg/mL) | – | – | –
3 | O=C(Nc1ccccc1)Oc1ccc(Cl)cc1C(=O)Nc1ccc(F)cc1 | > 2.5 | 3.25 | 3.12 (≈ 8.12 µM) | 16 (≈ 6.16 µg/mL) | 16 (≈ 6.16 µg/mL) | 8 (≈ 3.08 µg/mL) | 1.98 (≈ 5.15 µM) | 32 (≈ 12.3 µg/mL) | 16 (≈ 6.16 µg/mL) | 8 (≈ 3.08 µg/mL) | 1.98 (≈ 5.15 µM) | 16 | 32 (≈ 12.3 µg/mL) | > 20 | 8 (≈ 3.08 µg/mL) | 4 (≈ 1.54 µg/mL) | 32 (≈ 12.3 µg/mL) | >125 | >250 | >250
4 | Oc1ccc(Cl)cc1 [PARACHLOROPHENOL] | – | – | – | > 250 | 250 (≈ 32.1 µg/mL) | 250 (≈ 32.1 µg/mL) | – | > 250 | > 250 | 125 (≈ 16.1 µg/mL) | – | – | > 250 | – | 250 (≈ 32.1 µg/mL) | 125 (≈ 16.1 µg/mL) | > 250 | – | – | –
5 | O=C(Nc1ccccc1)Oc1ccccc1C(=O)Nc1ccccc1 | 0.5 | 26.8 | 31.2 (≈ 94 µM) | 250 (≈ 83.1 µg/mL) | 250 (≈ 83.1 µg/mL) | 125 (≈ 41.5 µg/mL) | 31.2 (≈ 94 µM) | 125 (≈ 41.5 µg/mL) | 250 (≈ 83.1 µg/mL) | 125 (≈ 41.5 µg/mL) | 31.2 (≈ 94 µM) | 5 | 250 (≈ 83.1 µg/mL) | 57.6 | 125 (≈ 41.5 µg/mL) | 125 (≈ 41.5 µg/mL) | 125 (≈ 41.5 µg/mL) | – | – | –
6 | O=C(NCCc1ccccc1)Oc1ccc(Cl)cc1 | > 0.5 | > 250 | 31.2 (≈ 113 µM) | 500 (≈ 138 µg/mL) | 250 (≈ 68.9 µg/mL) | 125 (≈ 34.5 µg/mL) | 125 (≈ 453 µM) | 250 (≈ 68.9 µg/mL) | 250 (≈ 68.9 µg/mL) | 125 (≈ 34.5 µg/mL) | 62.5 (≈ 227 µM) | 12 | 500 (≈ 138 µg/mL) | > 125 | 250 (≈ 68.9 µg/mL) | 250 (≈ 68.9 µg/mL) | 500 (≈ 138 µg/mL) | – | – | –
7 | O=C(NCc1ccccc1)Oc1ccc(Cl)cc1C(=O)Nc1ccc(Br)cc1 | > 3.1 | 1.65 | 3.91 (≈ 8.51 µM) | 8 (≈ 3.68 µg/mL) | 8 (≈ 3.68 µg/mL) | 4 (≈ 1.84 µg/mL) | 1.98 (≈ 4.31 µM) | 8 (≈ 3.68 µg/mL) | 8 (≈ 3.68 µg/mL) | 4 (≈ 1.84 µg/mL) | 1.98 (≈ 4.31 µM) | 17 | 8 (≈ 3.68 µg/mL) | > 50 | 16 (≈ 7.36 µg/mL) | 16 (≈ 7.36 µg/mL) | 16 (≈ 7.36 µg/mL) | >125 | >250 | >250
8 | O=C(NCCc1ccccc1)Oc1ccc(Cl)cc1C(=O)Nc1ccc(F)cc1 | 10.4 | 7.6 | 3.12 (≈ 7.57 µM) | 16 (≈ 6.61 µg/mL) | 16 (≈ 6.61 µg/mL) | 8 (≈ 3.3 µg/mL) | 3.12 (≈ 7.57 µM) | 32 (≈ 13.2 µg/mL) | 16 (≈ 6.61 µg/mL) | 8 (≈ 3.3 µg/mL) | 3.12 (≈ 7.57 µM) | 15 | 16 (≈ 6.61 µg/mL) | 41.5 | 4 (≈ 1.65 µg/mL) | 4 (≈ 1.65 µg/mL) | 32 (≈ 13.2 µg/mL) | >125 | >250 | >250
9 | O=C(NC1CCCCC1)Oc1ccc(Cl)cc1C(=O)Nc1ccc(Br)cc1 | > 6.3 | 9.4 | 1.56 (≈ 3.45 µM) | 8 (≈ 3.61 µg/mL) | 8 (≈ 3.61 µg/mL) | 4 (≈ 1.81 µg/mL) | 1.56 (≈ 3.45 µM) | 8 (≈ 3.61 µg/mL) | 8 (≈ 3.61 µg/mL) | 4 (≈ 1.81 µg/mL) | 1.56 (≈ 3.45 µM) | 16 | 8 (≈ 3.61 µg/mL) | > 50 | 16 (≈ 7.23 µg/mL) | 8 (≈ 3.61 µg/mL) | 16 (≈ 7.23 µg/mL) | >125 | >250 | >250
10 | O=C(NC12CC3CC(CC(C3)C1)C2)Oc1ccc(Cl)cc1 | > 1 | > 250 | 62.5 (≈ 204 µM) | 125 (≈ 38.2 µg/mL) | 125 (≈ 38.2 µg/mL) | 125 (≈ 38.2 µg/mL) | ≥ 125 | 125 (≈ 38.2 µg/mL) | 125 (≈ 38.2 µg/mL) | 125 (≈ 38.2 µg/mL) | ≥ 125 | 13 | 125 (≈ 38.2 µg/mL) | > 125 | 125 (≈ 38.2 µg/mL) | 62.5 (≈ 19.1 µg/mL) | 250 (≈ 76.5 µg/mL) | – | – | –
